Source: patent US20190225650A1, “PEPTIDOMIMETIC MACROCYCLES AND USE THEREOF IN REGULATING HIF1ALPHA” (AILERON THERAPEUTICS, INC., priority 2013, published 2019)
Bridge positions count the residues as written; N and C are the ends. Square brackets hold non-standard residues; d marks the D form. Peptide text beside a SMILES is read from it. R8 = C=CCCCCCC[C@@](C)(N)C(=O)O; S5 = C=CCCC[C@](C)(N)C(=O)O; Nle = CCCC[C@H](N)C(=O)O

Tests used:
[1] = system: HRE-bla ME-180 cells; assay: Cell proliferation assay (viability, MTT, 1% FBS); assay type: cell-based, human
Description: The human cervical cell line HRE-Bla ME-180 was obtained from Invitrogen. 2×10^4 ME-180 cells were plated in 96-well plates (costar) in Opti-MEM plus 1% FBS (Invitrogen). After 4 hr, cells were pretreated with chetomin, peptide or 0.5% DMSO (final concentration in media) vehicle control for 16 hr under normoxia (21% O2); then incubation continued under normoxia or hypoxia (1% O2) using a hypoxia incubator (Thermo Forma model). Viable cell numbers were quantified using CellTiter 96 Non-Radioactive Cell Proliferation kit (Promega, G4100). The results are presented in the column “Viability 1% FBS AVG (MTT V3-24 hr Normoxia) (μM)” of Table 6.

[2] = system: HRE-bla ME-180 cells; assay: Reporter gene assay (HRE-bla ME-180 HIF reporter, GeneBLAzer); assay type: cell-based, human; settings: for EC50: 24 hour normoxia
Outline: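 A FRET β-lactamase readout of HIF transcription was used. After compound treatment in 0.3% DMSO/media under normoxic conditions, 20 μl of 6× LiveBLAzer-FRET B/G (CCF4-AM) substrate was added. Plates sat 3 hr at room temperature in the dark and were read at 409 Ex/460Em and 409Ex/530Em on a Synergy 2. Inhibition was compared against DMSO vehicle controls, with chetomin as positive control.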

SMILES | Viability 1% FBS AVG (MTT V3-24 hr Normoxia) (μM) [1] | 18 h Avg % max inhibition at top conc (HIF Rptr-24 hrs normoxia) (μM) [2] | EC50 [2] [µM]
CCCC[C@H](NC(=O)[C@H](CC(C)C)NC(=O)[C@@H](NC(=O)[C@H](CCC(=O)O)NC(=O)[C@H](CCC(=O)O)NC(=O)[C@H](CC(=O)O)NC(=O)[C@@H](NC(=O)[C@H](Cc1ccccc1)NC(C)=O)[C@@H](C)CC)C(C)C)C(=O)N[C@@]1(C)CCCC=CCCC[C@@](C)(C(=O)N[C@@H](CCCC)C(=O)N[C@@H](C)C(=O)N[C@@H](CC(C)C)C(N)=O)NC(=O)[C@H]([C@@H](C)CC)NC(=O)[C@H](C(C)C)NC(=O)[C@H](CC(C)C)NC1=O [SP-8] (Ac-FIDEEVL[Nle][S5]LVI[S5][Nle]AL-NH2; staple 9-13) | ++++ (≥30: ++++) |  | 
CCCC[C@H](NC(=O)[C@H](CCC(=O)O)NC(=O)[C@@H](NC(=O)[C@@H](NC(=O)[C@H](CC(C)C)NC(=O)[C@]1(C)CCCC=CCCC[C@](C)(NC(=O)[C@H](CCC(=O)O)NC(=O)[C@H](CC(=O)O)NC(=O)[C@@H](NC(=O)[C@H](Cc2ccccc2)NC(C)=O)[C@@H](C)CC)C(=O)N[C@@H](C(C)C)C(=O)N[C@@H](CC(C)C)C(=O)N[C@@H](CCSC)C(=O)N1)C(C)C)[C@@H](C)CC)C(=O)N[C@@H](C)C(=O)N[C@@H](CC(C)C)C(=O)N[C@@H](CC(=O)O)C(=O)N[C@@H](CCCNC(=N)N)C(=O)N[C@H](C(N)=O)[C@@H](C)CC [SP-119] (Ac-FIDE[S5]VLM[S5]LVIE[Nle]ALDRI-NH2; staple 5-9) | ++++ (≥30: ++++) | +++ (≤25 but <50: +++) | > 30
CCCC[C@H](NC(=O)[C@H](C)NC(=O)[C@@H](NC(=O)[C@@H](NC(=O)[C@H](CC(C)C)NC(=O)[C@]1(C)CCCC=CCCC[C@](C)(NC(=O)[C@H](CCC(=O)O)NC(=O)[C@H](CC(=O)O)NC(=O)[C@@H](NC(=O)[C@H](Cc2ccccc2)NC(C)=O)[C@@H](C)CC)C(=O)N[C@@H](C(C)C)C(=O)N[C@@H](CC(C)C)C(=O)N[C@@H](CCCC)C(=O)N1)C(C)C)[C@@H](C)CC)C(=O)N[C@@H](C)C(=O)N[C@@H](CC(C)C)C(=O)N[C@@H](CO)C(=O)N[C@@H](CO)C(=O)N[C@H](C(N)=O)[C@@H](C)CC [SP-129] (Ac-FIDE[S5]VL[Nle][S5]LVIA[Nle]ALSSI-NH2; staple 5-9) | ++++ (≥30: ++++) | ++ (≤10 but <25: ++) | > 30
CCCC[C@H](NC(=O)[C@H](CCC(=O)O)NC(=O)[C@@H](NC(=O)[C@@H](NC(=O)[C@H](CC(C)C)NC(=O)[C@]1(C)CCCC=CCCC[C@](C)(NC(=O)[C@H](CCC(=O)O)NC(=O)[C@H](CC(=O)O)NC(=O)[C@@H](NC(=O)[C@H](Cc2ccccc2)NC(C)=O)[C@@H](C)CC)C(=O)N[C@@H](CO)C(=O)N[C@@H](CC(C)C)C(=O)N[C@@H](CCCC)C(=O)N1)C(C)C)[C@@H](C)CC)C(=O)N[C@@H](C)C(=O)N[C@@H](CC(C)C)C(N)=O [SP-140] (Ac-FIDE[S5]SL[Nle][S5]LVIE[Nle]AL-NH2; staple 5-9) | +++ (≤15 but <30: +++) | +++ (≤25 but <50: +++) | > 30
CC[C@H](C)[C@H](NC(=O)[C@H](CCCNC(=N)N)NC(=O)[C@H](CC(=O)O)NC(=O)[C@H](CC(C)C)NC(=O)[C@H](C)NC(=O)[C@H](CCSC)NC(=O)[C@H](CCC(=O)O)NC(=O)[C@]1(C)CCCC=CCCCCCC[C@@](C)(NC(=O)[C@H](CCC(=O)O)NC(=O)[C@H](CC(=O)O)NC(=O)[C@@H](NC(=O)[C@H](Cc2ccccc2)NC(C)=O)[C@@H](C)CC)C(=O)N[C@@H](C(C)C)C(=O)N[C@@H](CC(C)C)C(=O)N[C@@H](CCSC)C(=O)N[C@@H](CO)C(=O)N[C@@H](CC(C)C)C(=O)N[C@@H](C(C)C)C(=O)N1)C(N)=O [SP-175] (Ac-FIDE[R8]VLMSLV[S5]EMALDRI-NH2; staple 5-12) | ++++ (≥30: ++++) | ++ (≤10 but <25: ++) | > 30
CC[C@H](C)[C@H](NC(=O)[C@H](Cc1ccccc1)NC(C)=O)C(=O)N[C@@H](CC(=O)O)C(=O)N[C@@H](CCC(=O)O)C(=O)N[C@@H](CCC(=O)O)C(=O)N[C@H](C(=O)N[C@@H](CC(C)C)C(=O)N[C@@H](CCSC)C(=O)N[C@@]1(C)CCCC=CCCC[C@@](C)(C(=O)N[C@@H](CCSC)C(=O)N[C@@H](C)C(=O)N[C@@H](CC(C)C)C(=O)N[C@@H](CC(C)C)C(N)=O)NC(=O)[C@H]([C@@H](C)CC)NC(=O)[C@H](C(C)C)NC(=O)[C@H](CC(C)C)NC1=O)C(C)C [SP-229] (Ac-FIDEEVLM[S5]LVI[S5]MALL-NH2; staple 9-13) | ++++ (≥30: ++++) | + (<10: +) | > 30
CC[C@H](C)[C@H](NC(=O)[C@H](Cc1ccccc1)NC(C)=O)C(=O)N[C@@H](CC(=O)O)C(=O)N[C@@H](CCC(=O)O)C(=O)N[C@H](C(=O)N[C@H](C(=O)N[C@@H](CC(C)C)C(=O)N[C@@H](CCSC)C(=O)N[C@@]1(C)CCCC=CCCC[C@@](C)(C(=O)N[C@@H](CCSC)C(=O)N[C@@H](C)C(=O)N[C@@H](CC(C)C)C(N)=O)NC(=O)[C@H]([C@@H](C)CC)NC(=O)[C@H](C(C)C)NC(=O)[C@H](CC(C)C)NC1=O)C(C)C)[C@@H](C)O [SP-239] (Ac-FIDETVLM[S5]LVI[S5]MAL-NH2; staple 9-13) | ++++ (≥30: ++++) | ++ (≤10 but <25: ++) | > 30
CCCC[C@H](NC(=O)[C@H](Cc1ccccc1)NC(=O)[C@@H](NC(=O)[C@H](C)NC(=O)[C@H](CCC(N)=O)NC(=O)[C@H](CC(=O)O)NC(=O)[C@@H](NC(=O)[C@H](Cc1ccccc1)NC(C)=O)[C@@H](C)CC)C(C)C)C(=O)N[C@@]1(C)CCCC=CCCC[C@@](C)(C(=O)N[C@@H](CCCC)C(=O)N[C@@H](C)C(=O)N[C@@H](CC(C)C)C(=O)N[C@@H](CC(C)C)C(N)=O)NC(=O)[C@H]([C@@H](C)CC)NC(=O)[C@H](C(C)C)NC(=O)[C@H](CC(C)C)NC1=O [SP-250] (Ac-FIDQAVF[Nle][S5]LVI[S5][Nle]ALL-NH2; staple 9-13) | ++++ (≥30: ++++) | + (<10: +) | > 30
CCCC[C@H](NC(=O)[C@H](Cc1ccccc1)NC(=O)[C@@H](NC(=O)[C@H](C)NC(=O)[C@H](CCC(N)=O)NC(=O)[C@H](CC(=O)O)NC(=O)[C@@H](NC(=O)[C@H](Cc1ccccc1)NC(C)=O)[C@@H](C)CC)C(C)C)C(=O)N[C@@]1(C)CCCC=CCCC[C@@](C)(C(=O)N[C@@H](CCCC)C(=O)N[C@@H](C)C(=O)N[C@@H](CC(C)C)C(=O)N[C@@H](CC(C)C)C(N)=O)NC(=O)[C@H]([C@@H](C)CC)NC(=O)[C@H](C(C)C)NC(=O)[C@H](Cc2c[nH]cn2)NC1=O [SP-254] (Ac-FIDQAVF[Nle][S5]HVI[S5][Nle]ALL-NH2; staple 9-13) | + (<5: +) | +++ (≤25 but <50: +++) | ≤ 5
CCCC[C@H](NC(=O)[C@H](Cc1ccccc1)NC(=O)[C@@H](NC(=O)[C@H](C)NC(=O)[C@H](CCC(N)=O)NC(=O)[C@H](CC(=O)O)NC(=O)[C@@H](NC(=O)[C@H](Cc1ccccc1)NC(C)=O)[C@@H](C)CC)C(C)C)C(=O)N[C@@]1(C)CCCC=CCCC[C@@](C)(C(=O)N[C@@H](CCC(N)=O)C(=O)N[C@@H](C)C(=O)N[C@@H](CC(C)C)C(=O)N[C@@H](CC(C)C)C(N)=O)NC(=O)[C@H]([C@@H](C)CC)NC(=O)[C@H](C(C)C)NC(=O)[C@H](CC(C)C)NC1=O [SP-255] (Ac-FIDQAVF[Nle][S5]LVI[S5]QALL-NH2; staple 9-13) | + (<5: +) | ++++ (≥50: ++++) | ≤ 5
CC[C@H](C)[C@H](NC(=O)[C@H](CCCNC(=N)N)NC(=O)[C@H](CC(=O)O)NC(=O)[C@H](CC(C)C)NC(=O)[C@H](C)NC(=O)[C@H](CCSC)NC(=O)[C@]1(C)CCCC=CCCC[C@](C)(NC(=O)[C@H](CCSC)NC(=O)[C@H](Cc2ccccc2)NC(=O)[C@@H](NC(=O)[C@H](CCC(=O)O)NC(=O)[C@H](CCC(N)=O)NC(=O)[C@H](CC(=O)O)NC(=O)[C@@H](NC(=O)[C@H](Cc2ccccc2)NC(C)=O)[C@@H](C)CC)C(C)C)C(=O)N[C@@H](CC(C)C)C(=O)N[C@@H](C(C)C)C(=O)N[C@@H]([C@@H](C)CC)C(=O)N1)C(N)=O [SP-267] (Ac-FIDQEVFM[S5]LVI[S5]MALDRI-NH2; staple 9-13) | ++++ (≥30: ++++) | +++ (≤25 but <50: +++) | > 30
